Each molecule was assayed against T1, GPR139 (Homo sapiens, UniProt Q6DWJ6) (assay: GPR139 FLIPR cell calcium signal detection in GPR139-transfected HEK293 cells). Details: HEK293 cells transfected with GPR139, read-out: EC50 values of compounds for GPR139.
T1 construct: expressed in transfected cells; host or cells: HEK293
T1 sequence (Q6DWJ6 1-353): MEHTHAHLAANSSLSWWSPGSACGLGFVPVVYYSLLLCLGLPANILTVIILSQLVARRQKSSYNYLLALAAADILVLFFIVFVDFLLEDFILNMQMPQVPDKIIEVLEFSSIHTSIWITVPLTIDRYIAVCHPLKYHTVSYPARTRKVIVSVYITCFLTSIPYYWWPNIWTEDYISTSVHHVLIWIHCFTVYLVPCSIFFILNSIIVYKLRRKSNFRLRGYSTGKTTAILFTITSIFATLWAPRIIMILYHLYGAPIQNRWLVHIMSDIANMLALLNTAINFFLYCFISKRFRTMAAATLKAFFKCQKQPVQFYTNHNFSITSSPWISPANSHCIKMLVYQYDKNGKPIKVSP
Assay type: cell-based
Protocol: HEK293 cells were grown in a 10 cm culture dish containing DMEM complete medium (containing glutamine, sodium pyruvate, penicillin/streptomycin, 10% fetal bovine serum) and incubated at 37° C. in a 5% CO2 incubator until 90% confluency. Then subculture twice a week at a ratio of 1:5. During cell passaging, the culture medium was first completely removed, washed once with 4 mL of DPBS, and then 3 mL of trypsin digestion solution was added and mixed well. When cell dissociation was observed, the trypsin solution was aspirated and 5 mL of complete DMEM medium was added. The cells were dispersed by pipetting, and 1 mL of cell suspension was added to each of five new 10 cm culture dishes. Then, 7 mL of complete DMEM medium was supplemented to each dish. After mixing, the cells were cultured at 37° C. in a 5% CO2 incubator.
On the transfection day, cells were digested and seeded into one 10 cm culture dish at appropriate density. 6 mL of DMEM/F12 medium (containing glutamine, sodium pyruvate, HEPES, and fetal bovine serum) was added, and the cells were cultured for 5 hours at 37° C. in 5% CO2. A 50 mL sterile centrifuge tube (Tube A) was taken, and 1 mL of serum-free DMEM/F12 medium (containing glutamine, sodium pyruvate, and HEPES) was added, followed by 10 μg of GPR139 DNA. The mixture was mixed well. Another 50 mL sterile centrifuge tube (Tube B) was taken, and 1 mL of serum-free DMEM medium (containing glutamine, sodium pyruvate, and HEPES) was added, followed by 60 μL of Fugene HD transfection reagent. The mixture was mixed well. 1 mL of Fugene HD transfection reagent from Tube B was transferred to Tube A, mixed well, and incubated at room temperature for 20 minutes. 2 mL of DMEM/F12 medium (containing glutamine, sodium pyruvate, HEPES, and fetal bovine serum) was added to Tube A. After mixing, 4 mL of mixture from Tube A was transferred to the prepared 10 cm dish (total volume 10 mL). The cells were cultured for 20-24 hours at 37° C. in 5% CO2.
The next day, the transfected cells were digested with trypsin digestion solution, and appropriate DMEM/F12 medium (containing glutamine, sodium pyruvate, HEPES, penicillin/streptomycin, fetal bovine serum) was added. The cells were seeded into Matrigel coated 384-well plates with a cell density of 6.67×10^6 cells/mL, 30 μL/well. The 384-well plates were cultured at 37° C. in 5% CO2.
On the third day, 10 μL/well of FLIPR dye (diluted in HEPES solution containing Pluronic and Probenecid) was added to the 384-well cell plate. And the plate was incubated for 40 minutes at 37° C. in 5% CO2. Diluted compounds were added to the cell plate and calcium signals were measured using a FLIPR plate reader.
Data were analyzed using XL-fit software to obtain EC50 values for each compound.

| EC50 [nM] | Structure (SMILES) |
| --- | --- |
| 0.1 to 100 | C[C@H](NC(=O)CNC(=O)c1cccc(F)c1)c1ccccc1F [NRB153] |
| 100 to 1000 | C[C@H](NC(=O)CNC(=O)c1cccc(F)c1)c1c(F)cccc1F [NRB154] |
| 100 to 1000 | C[C@H](NC(=O)CNC(=O)c1cc(F)ccn1)c1ccccc1F [NRB156] |
| 0.1 to 100 | C[C@H](NC(=O)CNC(=O)c1cccc(Cl)c1)c1cc(F)ccc1F [NRB178] |
| 0.1 to 100 | C[C@H](NC(=O)CNC(=O)c1cccc(Cl)c1)c1cccc(F)c1F [NRB180] |
| 0.1 to 100 | C[C@H](NC(=O)CNC(=O)c1cc(F)cc(F)c1)c1c(F)cccc1F [NRB202] |
| 0.1 to 100 | COc1cc(F)nc(C(=O)NCC(=O)N[C@@H](C)c2ccccc2F)c1 [NRB211] |
| 100 to 1000 | C[C@H](NC(=O)CNC(=O)c1cc(F)cc(C(F)(F)F)n1)c1c(F)cccc1F [NRB214] |
| 0.1 to 100 | COc1cc(F)nc(C(=O)NCC(=O)N[C@@H](C)c2c(F)cccc2F)c1 [NRB215] |
| 0.1 to 100 | C[C@H](NC(=O)CNC(=O)c1cc(Cl)cc(Cl)c1)c1c(F)cccc1F [NRB216] |
| 100 to 1000 | COc1cc(Cl)cc(C(=O)NCC(=O)N[C@@H](C)c2c(F)cccc2F)n1 [NRB221] |
| 100 to 1000 | C[C@H](NC(=O)CNC(=O)c1cc(Cl)cc(C(F)(F)F)n1)c1c(F)cccc1F [NRB222] |
| 0.1 to 100 | C[C@H](NC(=O)CNC(=O)c1cc(Cl)cc(F)n1)c1c(F)cc(F)cc1F [NRB225] |
| 100 to 1000 | C[C@H](NC(=O)CNC(=O)c1cc(Cl)cc(C(F)(F)F)n1)c1c(F)cc(F)cc1F [NRB227] |

Reference: patent US20260166016A1, “GPR139 RECEPTOR AGONIST, PREPARATION METHOD THEREFOR, AND APPLICATION THEREOF” (NEUBO APPTECH CO., LTD., priority 2022, published 2026)
